Results taken from PMC10518255, “A first-in-class pan-lysyl oxidase inhibitor impairs stromal remodeling and enhances gemcitabine response and survival in pancreatic cancer” (Nature Cancer, 2023).
Values joined by “and” are separate entries in the source; they are usually repeats but may differ in a detail not shown here. Identical values can stand only once.

Columns and labels:
[1] = Rat pharmacokinetics, single dose orally (10 mg/kg) or intravenously (5 mg/kg)
F4/80 = experiment: Immunohistochemistry of end-point KPC tumors: macrophage infiltration; assay type: in vivo, mouse; settings: KPC tumours at endpoint; individual replicate values (Extended Data 6G)
Procedure: All tissues or matrices, including patient TMAs, were fixed in 10% buffered formalin and embedded in paraffin. The 4-μm sections of samples were deparaffinized with xylene and rehydrated in graded ethanol washes. For immunohistochemistry, Bond Dewax Solution (AR9222) was used. Antigen retrieval was performed using Bond RX H2(30) protocol: HIER 30 min ER1 (citrate pH 6) OR ER2 (EDTA pH 9) at 100 °C. Slides were quenched in BOND Polymer Refine Detection (Leica Biosystems DS9800). […] Slides were digitized on an Aperio slide scanner and representative areas per tumor acquired and analyzed by researchers blinded to the conditions of the experiment.
Extended Data Fig. 6 PXS-5505 in combination with gemcitabine in a KPC model. a. Quantification of proliferating cells (Ki67 positive nuclear staining) in KPC tumors at end point, treated as indicated. 5 fields of view (500 μm × 500 μm) per mouse and 10 mice per cohort were scored. […] Quantification of percent coverage of αSMA positive staining in KPC tumors at end point, treated as indicated. 3 fields of view (1000 μm × 1000 μm) per mouse and 10 mice per cohort were scored. […] Quantification of percent coverage of PDGFR-ß positive staining in KPC tumors at end point, treated as indicated. 3 fields of view (1000 μm × 1000 μm) per mouse and 10 mice per cohort were scored. […] 3 fields of view (500 μm × 500 μm) per mouse and 10 mice per cohort were scored. […]

[2] = Preclinical genotoxicity and toxicity studies; assay type: in vivo

Cl.Cl.NC/C=C(\F)CS(=O)(=O)c1cccc2cccnc12.O [PXS-5505, (Z)-3-fluoro-4-(quinolin-8-ylsulfonyl)but-2-en-1-amine dihydrochloride monohydrate]
Plasma concentration ([1]; 5 mg/kg iv, 0.03 hrs): 10.145
Plasma concentration ([1]; 5 mg/kg iv, 0.17 hrs): 4.593
Plasma concentration ([1]; 5 mg/kg iv, 0.5 hrs): 2.135
Plasma concentration ([1]; 5 mg/kg iv, 1 hrs): 0.7139
Plasma concentration ([1]; 5 mg/kg iv, 2 hrs): 0.1589
Plasma concentration ([1]; 5 mg/kg iv, 3 hrs): 0.055
Plasma concentration ([1]; 5 mg/kg iv, 5 hrs): 0.008393
Plasma concentration ([1]; 10 mg/kg oral, 0.25 hrs): 2.305
Plasma concentration ([1]; 10 mg/kg oral, 0.5 hrs): 3.551
Plasma concentration ([1]; 10 mg/kg oral, 1 hrs): 3.399
Plasma concentration ([1]; 10 mg/kg oral, 2 hrs): 0.9
Plasma concentration ([1]; 10 mg/kg oral, 3 hrs): 0.198
Plasma concentration ([1]; 10 mg/kg oral, 5 hrs): 0.02554
Plasma concentration ([1]; 10 mg/kg oral, 8 hrs): 0.0075
AUC(0-t) ([1]; plasma, po, 10 mg/kg): 1.6 µg·h/mL
Cmax ([1]; plasma, po, 10 mg/kg): 1.01 µg/mL
Tmax ([1]; plasma, po, 10 mg/kg): 48 min
bioavailability ([1]; plasma, po, 10 mg/kg, Bioavailability (F)): 75%
half-life ([1]; plasma, po, 10 mg/kg, T1/2, rat): 42 min
bioavailability ([1]; plasma, po, 10 mg/kg, bioavailability, oral administration, for rodents): > 75%
half-life ([1]; plasma, po, 10 mg/kg, half-life, oral administration): ~60 min
macrophage infiltration (F4/80 positive staining) (F4/80): 5 and 7
tolerability in preclinical toxicity studies ([2]; 6 months): well tolerated
preclinical development including genotoxicity and toxicity studies ([2]; in vivo): successfully passed
